Reference: paper PMC8191578, “Targeting the TLR2 Receptor With a Novel Thymopentin-Derived Peptide Modulates Immune Responses” (Frontiers in Immunology, 2021)
Marks after values point to notes of the source that are not given here. Where no end group is shown, it is not given here.

Assays:
[1] = Ex vivo stability in human serum; type: in vitro ADME; settings: human serum (Sigma), lipids removed by centrifugation, pre-incubated 15 min at 37°C, peptide 10 µg/mL, HPLC, logarithm-linear regression, mean ± SD, n=5
Procedure: Human serum was purchased from Sigma (St. Louis, MO, USA). […] The half-lives of CATH2, TP5, and CbTP (10 µg/mL) were evaluated in vitro following incubation at 37°C in human serum at different time points. The samples were collected into prechilled tubes containing 1 mL of acidic acetone (hydrochloric acid/acetone/H2O, 1:40:5, by volume) and centrifuged at 2,000 ×g for 20 min at 4°C.
The obtained precipitates were dried in vacuo, after which the dried precipitates were dissolved in 0.5 mL of 1 M acetic acid. The peptide analysis was carried out according to the protocol for the study of TP5 using HPLC ([26]). The half-lives of the target peptides were calculated by a logarithm-linear regression analysis of the peptide concentrations.

recombinant TLR2 = target: T1, recombinant TLR2 (Homo sapiens, UniProt O60603); experiment: Surface plasmon resonance binding to immobilized TLR2; settings: SPR, ProteOn XPR36, GLH chip, 25°C, PBS with 1% Tween 20; CbTP 0-10 μM; 1:1 model; read-out: association rate constant Ka
T1 construct: purchased R&D Systems
Procedure: Surface plasmon resonance (SPR) experiments were performed using a ProteOn XPR36 instrument (Bio-Rad, Hercules, CA, USA) with a ProteOn GLH sensor chip (Bio-Rad) at 25°C. The running buffer (PBS with 1% Tween 20) was continuously passed into reaction chamber. An SPR sensing chip with recombinant TLR2 (R&D Systems, Minneapolis, MN, USA) was immobilized by amino coupling to capture CbTP, as described in the manufacturer’s protocol. The binding affinity of CbTP to the TLR2-covered surface was examined in varying concentrations of the CbTP peptide (0, 1.25, 2.5, 5, and 10 μM). The running buffer was injected into the empty channels as a reference. To regenerate the chip surface at the end of each experiment, 10 mM Gly-HCl buffer (pH 2.5) was injected. Data analysis was conducted using ProteOn manager software (version 2.0). The binding curves were processed for the start injection alignment and baseline. The reference-subtracted sensorgram was then fitted to the curves labeling a homogeneous 1:1 model and protein surface data were grouped together to fit the association (K a) and dissociation (K d) rate constants. The equilibrium dissociation constant (KD) for the peptide-TLR2 interaction was calculated using the following equation: […]

T1 sequence (O60603 21-784, species assumed): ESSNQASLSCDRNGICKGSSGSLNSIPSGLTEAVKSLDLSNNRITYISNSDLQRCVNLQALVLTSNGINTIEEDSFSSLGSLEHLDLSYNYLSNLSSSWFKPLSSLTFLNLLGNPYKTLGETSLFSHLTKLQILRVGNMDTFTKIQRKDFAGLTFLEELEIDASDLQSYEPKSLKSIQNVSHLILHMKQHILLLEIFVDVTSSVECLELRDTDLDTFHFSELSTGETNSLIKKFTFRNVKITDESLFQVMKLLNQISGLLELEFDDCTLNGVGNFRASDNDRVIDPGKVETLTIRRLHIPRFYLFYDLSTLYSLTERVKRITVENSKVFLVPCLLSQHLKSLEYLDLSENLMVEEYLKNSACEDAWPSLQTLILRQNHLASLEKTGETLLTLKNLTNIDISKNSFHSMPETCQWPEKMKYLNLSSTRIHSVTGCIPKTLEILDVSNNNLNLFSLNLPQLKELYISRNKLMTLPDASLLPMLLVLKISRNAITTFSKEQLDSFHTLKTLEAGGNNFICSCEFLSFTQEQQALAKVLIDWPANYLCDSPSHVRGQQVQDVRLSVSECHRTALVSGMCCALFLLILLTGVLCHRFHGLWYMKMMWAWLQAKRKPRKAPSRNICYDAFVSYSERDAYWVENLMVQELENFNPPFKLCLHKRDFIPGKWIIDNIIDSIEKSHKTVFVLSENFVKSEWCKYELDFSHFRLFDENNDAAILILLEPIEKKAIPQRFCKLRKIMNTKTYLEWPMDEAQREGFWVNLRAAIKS

Sequence | t1/2 in human serum [1] | kon (recombinant TLR2) [M⁻¹ s⁻¹]
RFGRFLRKIRRFRPKVTITIQGSARFG [CATH2, Cathelicidin-2, reference compound] | 302 ± 34.5^a min | 
RFGRFLRKIRRFRRKDVY [CbTP] | 353 ± 41.3^a min | 3.61e+08
